From US20080300253A1, “TREATMENT OF INFLAMMATORY DISORDERS WITH PRAZIQUANTEL” (Gencross, Inc., priority 2005, published 2008)
Read-outs that look alike come from different tables or passages of the source.

Assays:
[1] = system: IκB; assay: IκB amount and phosphorylation in blood mononuclear cells of LPS/D-galactosamine-treated mice (western blotting); assay type: in vivo; conditions: 50 mg/kg oral 30 minutes prior to LPS/D-galactosamine; blood 3 hours later
Experimental: (§1) Mice were orally administered 50 mg/kg praziquantel 30 minutes prior to ip injection of 8 ng LPS and 8 mg D-galactosamine. Blood samples were taken 3 hours later, and mononuclear cells were isolated using Histopaque (Sigma Aldrich, cat #1080). Protein levels and their phosphorylation states were then determined by western blotting. […] The amount of IKK-α and IKK-β proteins and their phosphorylation states were also examined. […] IKK-α and IKK-β are known to phosphorylate IκB, and phosphorylated IκB is degraded by a protease.

[2] = system: ATF-2; assay: Phosphorylated ATF-2 in LPS-treated differentiated THP-1 cells (Western blotting); assay type: cell-based, human; conditions: 2 μg/ml LPS + 100 nM praziquantel vs LPS alone
Experimental: (§2) The THP-1 human monocytic cell line was treated with 200 nM phorbol myristate acetate (PMA) for 24 hours, resulting in differentiation into functional macrophages. Differentiated THP-1 cells were treated with 2 μg/ml lipopolysaccharide (LPS), and total proteins or nuclear proteins were isolated 0.5, 1, 2, and 3 hours later. In some differentiated THP-1 cell cultures, a combination of LPS and 100 nM praziquantel was added prior to isolation of total and nuclear proteins at the same time points. Both total protein and nuclear protein were quantitated by Western blotting. […] Thus, praziquantel inhibits LPS-induced NF-κB activity by preventing its translocation to the nucleus where it exerts its transcriptional activation effects. Neither α-tubulin nor lamin B protein was affected by either LPS or praziquantel treatment (FIG. 1).

[3] = system: collagen-induced arthritis; assay: Mouse collagen-induced arthritis model: severity of arthritis by visual inspection; assay type: in vivo, DBA/1 mice; conditions: 50 mg/kg oral suspension in saline, once or twice a day for three weeks; vs vehicle
Experimental: (§3) Male DBA/1 mice, obtained from the Jackson Laboratory, are maintained in groups of three to five in polycarbonate cages and fed standard mouse chow and water ad libitum. The environment is made specifically pathogen-free. Mice are immunized with bovine type II collagen (CII), at 8 to 12 weeks of age, as described previously (Arthritis Rheum. 2002, 46:1109, 2002; J. Immunol., 5846, 2005). Briefly, CII is dissolved in 0.05N acetic acid at 2 mg/ml, and emulsified (1:1 ratio) with complete Freund's adjuvant (CFA) at 4° C. The mice receive 0.1 ml of the emulsion, containing 100 μg of CII, in the base of the tail as a primary immunization. Booster injections are given into the footpad with 50 μg of CII, similarly dissolved and emulsified with CFA (1:1), 14 days after the primary immunization. CIA develops as early as 3 wk, peaks at 5-7 wk, and thereafter spontaneously resolves at 10 wk. Mice are divided into two groups. One group is administered vehicle (saline), and the other group is administered an oral suspension of 50 mg/kg praziquantel in saline starting 2 weeks after the CII booster injection. Praziquantel administration is continued once or twice a day for three weeks after the initial administration.
(§4) TNF-α and p38 levels in blood are then assayed as described above, and the incidence and severity of arthritis in the two groups of mice are determined by visual inspection.

[4] = system: ATF-2; assay: ATF-2 phosphorylation in blood mononuclear cells of LPS/D-galactosamine-treated mice (western blotting); assay type: in vivo; conditions: 50 mg/kg oral 30 minutes prior to LPS/D-galactosamine; blood 3 hours later
Experimental: (§5) Mice were orally administered 50 mg/kg praziquantel 30 minutes prior to ip injection of 8 ng LPS and 8 mg D-galactosamine. Blood samples were taken 3 hours later, and mononuclear cells were isolated using Histopaque (Sigma Aldrich, cat #1080). Protein levels and their phosphorylation states were then determined by western blotting.

[5] = system: IKK α/β; assay: Phosphorylated IKK α/β in LPS-treated differentiated THP-1 cells (Western blotting); assay type: cell-based, human; conditions: 2 μg/ml LPS + 100 nM praziquantel vs LPS alone
Experimental: as §2

[6] = system: IKK-β; assay: IKK-β phosphorylation in blood mononuclear cells of LPS/D-galactosamine-treated mice (western blotting); assay type: in vivo; conditions: 50 mg/kg oral 30 minutes prior to LPS/D-galactosamine; blood 3 hours later
Experimental: as §1

[7] = system: IKK-α; assay: IKK-α phosphorylation in blood mononuclear cells of LPS/D-galactosamine-treated mice (western blotting); assay type: in vivo; conditions: 50 mg/kg oral 30 minutes prior to LPS/D-galactosamine; blood 3 hours later
Experimental: as §1

[8] = dogs dosed with 100 mg/kg; cited from earlier work
[9] = system: p38 kinase; assay: p38 kinase amount and phosphorylation in blood mononuclear cells of LPS/D-galactosamine-treated mice (western blotting); assay type: in vivo; conditions: 50 mg/kg oral 30 minutes prior to LPS/D-galactosamine; blood 3 hours later
Experimental: as §5

[10] = system: TNF-α; assay: Mouse collagen-induced arthritis model: serum TNF-α; assay type: in vivo, DBA/1 mice; conditions: 50 mg/kg oral suspension in saline, once or twice a day for three weeks; vs vehicle
Experimental: as §3, §4

[11] = cats dosed with 100 mg/kg; cited from earlier work
[12] = system: TNF-α; assay: Serum TNF-α (ELISA) in acute mouse sepsis model (LPS/D-galactosamine); assay type: in vivo, C57BL/6 mice; conditions: 12.5, 25 or 50 mg/kg oral, 30 minutes prior to LPS/D-galactosamine
[13] = system: p38; assay: Mouse collagen-induced arthritis model: serum p38; assay type: in vivo, DBA/1 mice; conditions: 50 mg/kg oral suspension in saline, once or twice a day for three weeks; vs vehicle
Experimental: as §3, §4

[14] = system: NF-κB; assay: NF-κB total level and nuclear translocation in LPS-treated differentiated THP-1 cells (Western blotting); assay type: cell-based, human; conditions: 2 μg/ml LPS + 100 nM praziquantel
Experimental: as §2

[15] = system: p38; assay: Phosphorylated p38 in LPS-treated differentiated THP-1 cells (Western blotting); assay type: cell-based, human; conditions: 2 μg/ml LPS + 100 nM praziquantel vs LPS alone
Experimental: as §2

[16] = rats; cited from earlier work
[17] = system: LPS/D-galactosamine-induced acute sepsis; assay: Survival of LPS/D-galactosamine-treated mice (acute sepsis); assay type: in vivo, C57BL6 mice
Experimental: An acute mouse in vivo sepsis model was used to determine the ability of praziquantel to reduce TNF-α levels. C57BL/6 mice were used which were 7 to 8 weeks old and weighed 25 to 30 g. Fodder (Daehan Biolink) and water were administered ad libitum, and the temperature and relative humidity of the nursery cage were maintained at 21-24° C. and 40-80%, respectively. In addition, the nursery cage light was controlled to switch between day and night every 12 hours. Eight to ten mice were assigned to each experimental group. Each mouse was intraperitoneally (ip) administered 8 ng LPS (Sigma Aldrich) and 8 mg D-galactosamine (SIGMA), each dissolved in 100 μl distilled water, to induce acute sepsis. In order to investigate the effect of praziquantel on TNF-α levels in blood, praziquantel was orally administered to each experimental group at dosages of 12.5 mg/kg, 25 mg/kg or 50 mg/kg, 30 minutes prior to treatment with LPS/D-galactosamine. The blood was sampled 1, 3 and 5 hours after treatment with praziquantel. Serum was isolated from the sampled blood, and the amount of TNF-α was measured by ELISA (R&D Systems, Minneapolis, Minn.).
Female C57BL6 mice (8-10 per experimental group) were treated as described above to induce acute sepsis, and the same doses of praziquantel were administered 30 minutes prior to treatment with LPS/D-galactosamine.

[18] = system: TNF-α; assay: TNF-α amount in LPS-treated differentiated THP-1 cells (Western blotting); assay type: cell-based, human
Experimental: as §2

Compound: O=C(C1CCCCC1)N1CC(=O)N2CCc3ccccc3C2C1 (stereo not drawn) [Praziquantel, 2-(cyclohexylcarbonyl)-1,2,3,6,7,11β-hexahydro-4H-pyrazino[2,1-α]isoquinoline-4-one]
- amount of IκB protein [1]: did not decrease
- phosphorylation of IκB [1]: inhibited
- active (phosphorylated) form of ATF-2 [2]: Significant reductions
- severity of arthritis [3]: greatly reduced
- phosphorylation of ATF-2 [4]: inhibited
- active (phosphorylated) form of IKK α/β [5]: Significant reductions
- phosphorylation of IKK-β [6]: inhibited
- phosphorylation of IKK-α [7]: inhibited
- adverse effects [8]: No adverse effects
- amount of p38 protein [9]: did not change
- phosphorylation of p38 kinase [9]: inhibited
- serum levels of TNF-α [10]: significantly reduced
- adverse effects [11]: No adverse effects
- amount of TNF-α in blood serum [12]: dose-dependent decrease
- serum levels of p38 [13]: significantly reduced
- total NF-κB levels [14]: not affected
- translocation of NF-κB to the nucleus ([14]; nuclear fraction): did not occur
- active (phosphorylated) form of p38 [15]: Significant reductions
- LD50 [16]: 2,000-3,000 mg/kg
- Survival (# of mice) ([17]; 12.5 mg/kg oral, 0 h): (30/30)
- Survival rate ([17]; 12.5 mg/kg oral, 0 h): 100%
- Survival (# of mice) ([17]; 12.5 mg/kg oral, 5 h): (30/30)
- Survival rate ([17]; 12.5 mg/kg oral, 5 h): 100%
- Survival (# of mice) ([17]; 12.5 mg/kg oral, 6 h): (26/30)
- Survival rate ([17]; 12.5 mg/kg oral, 6 h): 86%
- Survival (# of mice) ([17]; 12.5 mg/kg oral, 7 h): (17/30)
- Survival rate ([17]; 12.5 mg/kg oral, 7 h): 57%
- Survival (# of mice) ([17]; 12.5 mg/kg oral, 8 h): (15/30)
- Survival rate ([17]; 12.5 mg/kg oral, 8 h): 50%
- Survival (# of mice) ([17]; 12.5 mg/kg oral, 9 h): (13/30)
- Survival rate ([17]; 12.5 mg/kg oral, 9 h): 43%
- Survival (# of mice) ([17]; 12.5 mg/kg oral, 10 h): (4/30)
- Survival rate ([17]; 12.5 mg/kg oral, 10 h): 14%
- Survival (# of mice) ([17]; 12.5 mg/kg oral, 11 h): (4/30)
- Survival rate ([17]; 12.5 mg/kg oral, 11 h): 14%
- Survival (# of mice) ([17]; 12.5 mg/kg oral, 12 h): (4/30)
- Survival rate ([17]; 12.5 mg/kg oral, 12 h): 14%
- Survival (# of mice) ([17]; 12.5 mg/kg oral, >24 h): (4/30)
- Survival rate ([17]; 12.5 mg/kg oral, >24 h): 14%
- Survival (# of mice) ([17]; 25 mg/kg oral, 0 h): (30/30)
- Survival rate ([17]; 25 mg/kg oral, 0 h): 100%
- Survival (# of mice) ([17]; 25 mg/kg oral, 5 h): (30/30)
- Survival rate ([17]; 25 mg/kg oral, 5 h): 100%
- Survival (# of mice) ([17]; 25 mg/kg oral, 6 h): (28/30)
- Survival rate ([17]; 25 mg/kg oral, 6 h): 93%
- Survival (# of mice) ([17]; 25 mg/kg oral, 7 h): (21/30)
- Survival rate ([17]; 25 mg/kg oral, 7 h): 71%
- Survival (# of mice) ([17]; 25 mg/kg oral, 8 h): (21/30)
- Survival rate ([17]; 25 mg/kg oral, 8 h): 71%
- Survival (# of mice) ([17]; 25 mg/kg oral, 9 h): (21/30)
- Survival rate ([17]; 25 mg/kg oral, 9 h): 71%
- Survival (# of mice) ([17]; 25 mg/kg oral, 10 h): (21/30)
- Survival rate ([17]; 25 mg/kg oral, 10 h): 71%
- Survival (# of mice) ([17]; 25 mg/kg oral, 11 h): (21/30)
- Survival rate ([17]; 25 mg/kg oral, 11 h): 71%
- Survival (# of mice) ([17]; 25 mg/kg oral, 12 h): (19/30)
- Survival rate ([17]; 25 mg/kg oral, 12 h): 64%
- Survival (# of mice) ([17]; 25 mg/kg oral, >24 h): (19/30)
- Survival rate ([17]; 25 mg/kg oral, >24 h): 64%
- Survival (# of mice) ([17]; 50 mg/kg oral, 0 h): (30/30)
- Survival rate ([17]; 50 mg/kg oral, 0 h): 100%
- Survival (# of mice) ([17]; 50 mg/kg oral, 5 h): (30/30)
- Survival rate ([17]; 50 mg/kg oral, 5 h): 100%
- Survival (# of mice) ([17]; 50 mg/kg oral, 6 h): (28/30)
- Survival rate ([17]; 50 mg/kg oral, 6 h): 93%
- Survival (# of mice) ([17]; 50 mg/kg oral, 7 h): (28/30)
- Survival rate ([17]; 50 mg/kg oral, 7 h): 93%
- Survival (# of mice) ([17]; 50 mg/kg oral, 8 h): (28/30)
- Survival rate ([17]; 50 mg/kg oral, 8 h): 93%
- Survival (# of mice) ([17]; 50 mg/kg oral, 9 h): (28/30)
- Survival rate ([17]; 50 mg/kg oral, 9 h): 93%
- Survival (# of mice) ([17]; 50 mg/kg oral, 10 h): (28/30)
- Survival rate ([17]; 50 mg/kg oral, 10 h): 93%
- Survival (# of mice) ([17]; 50 mg/kg oral, 11 h): (28/30)
- Survival rate ([17]; 50 mg/kg oral, 11 h): 93%
- Survival (# of mice) ([17]; 50 mg/kg oral, 12 h): (28/30)
- Survival rate ([17]; 50 mg/kg oral, 12 h): 93%
- Survival (# of mice) ([17]; 50 mg/kg oral, >24 h): (28/30)
- Survival rate ([17]; 50 mg/kg oral, >24 h): 93%
- amount of TNF-α ([18]; 2 μg/ml LPS + 100 nM praziquantel vs LPS alone, one, two and three hours): much less TNF-α
- amount of TNF-α ([18]; 2 μg/ml LPS + 100 nM praziquantel, two and three hour time points): barely detectable
